Results on 21 compounds are retold here after patent US11708344B2, “Flavone derivatives for the treatment and prophylaxis of hepatitis B virus disease” (Hoffmann-La Roche Inc., priority 2018, dated 2023).

For series [1], the system named is HBeAg (surrogate marker for cccDNA) in HepDES19 cells. Put plainly: Engineered HepDES19 primary screen assay (HBeAg ELISA). In kind it is cell-based, HBV. The gist of the method:
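HepDES19 cells were induced by Tet withdrawal for 8 days, then treated with half-log compound dilutions (1% DMSO final) for 5 days at 37 °C. HBeAg was measured by ELISA as the cccDNA surrogate, viability by CCK-8, and IC50 from a 4-parameter logistic fit.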

The test system of series [2] is HBsAg in HBV-infected PHH. Put plainly: Cryopreserved primary human hepatocytes (PHH) HBV infection assay, extracellular HBsAg (CLIA). Format: cell-based. How it is done: This assay is used to confirm the anti-HBV effect of the compounds in HBV PHH infection assay. Cryopreserved PHH (BioreclamationIVT, Lot YJM) was thawed at 37° C. and gently transferred into pre-warmed InVitroGRO HT medium (BioreclamationIVT, Cat. S03317). The mixture was centrifuged at 70 relative centrifugal force (RCF) for 3 minutes at RT, and the supernatant was discarded. Pre-warmed InVitroGRO CP medium (BioreclamationIVT, Cat #S03316) was added to the cell pellet to gently re-suspend cells. The cells were seeded at the density of 5.8×10^4 cells per well to collagen I coated 96-well plate (Gibco, Cat. A1142803) with the InVitroGRO CP medium. All plates were incubated at 37° C. with 5% CO2 and 85% humidity.
At 20 hours after plating, the medium was changed to PHH culture medium (Dulbecco's Modified Eagle Medium (DMEM)/F12 (1:1) (Gibco, Cat. 11320-033), 10% fetal bovine semm (Gibco Cat. 10099141), 100 U/mL penicillin, 100 μg/mL streptomycin (Gibco, Cat. 151401-122), […] (Invitrogen Cat. PHG0311L), 20 ng/mL dexamethasone (Sigma, Cat. D4902) and 250 ng/mL human recombinant insulin (Gibco, Cat. 12585-014)). And the cells were incubated at 37° C. with 5% CO2 and 85% humidity for 4 hours. The medium was then changed to pre-warmed PHH culture medium containing 4% polyethylene glycol (PEG) MW8000 (Sigma, Cat. P1458-50 ML) and 1% DMSO (Sigma, Cat. D2650). 5.8×10^6 genomic equivalents of HBV were added into the medium.
At 24 hours post-infection, the cells were gently washed with PBS and refreshed with PHH culture medium supplemented with 1% DMSO, and 0.25 mg/mL Matrix gel (Corning, Cat. 356237) at 200 μL per well. All plates were immediately placed in at 37° C. CO2 incubator.
24 hours later, serial dilutions of compounds made with DMSO were further diluted with the same culture medium (PHH culture medium supplemented with 1% DMSO and 0.25 mg/mL Matrix gel as described above) before they were added to the cells to reach desired final compound concentrations and 1% DMSO concentration. The medium containing the compounds were refreshed every three days.
At 9 days post-compound treatment, extracellular HBsAg level were measured with Chemiluminescence Immuno Assay (CLIA) kit (Autobio, HBsAg Quantitative CLIA). Extracellular HBV DNA was extracted by MagNA Pure 96 system (Roche) and then determined by quantitative PCR with the following primers and probe: […]
HBsAg IC50 and HBV DNA IC50 values were derived from the dose-response curve using 4 parameter logistic curve fit method. The compounds of formula (I) have HBsAg IC50<20 μM, particularly <1 μM; and HBV DNA IC50<50 μM.

Series [3] can be described thus: Human microsome stability assay. The following applies: human liver microsomes, 1 μM test compound, 0.5 mg/mL microsomal protein, 37° C., pH 7.4, 0-30 minutes. Format: in vitro ADME. The gist of the method: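 Compound (1 μM) incubated at 37 °C with human liver microsomes (0.5 mg/mL protein) in 100 mM potassium phosphate, pH 7.4, after 10 min preincubation; started with NADPH regenerating system. Sampled at 0–30 min, quenched with cold ACN; remaining parent quantified by LC-MS/MS, with no-NADPH controls.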

The mark [4] stands for this setting: Hepatitis B virus, HepDES19, 120 h, read-out: IC50 (HBeAg level, HepDES19 primary screen assay), HepDES19 cells, 5 days compound incubation, HBeAg ELISA.
Where [5] appears, read: Hepatitis B virus, Hepatocyte, 216 h, read-out: HBsAg IC50, Cryopreserved PHH infected with HBV, 9 days post-compound treatment, extracellular HBsAg.

Like-named read-outs stand apart in the source and are kept apart here.

As for `Cc1cc(-c2cc(=O)c3cccc(Cl)c3o2)c(OC2CC(C(=O)O)C2)cc1Cl` (stereo in doubt) [Example B012-B, Trans-3-[5-chloro-2-(8-chloro-4-oxo-chromen-2-yl)-4-methyl-phenoxy]cyclobutanecarboxylic acid], the half-maximal inhibitory concentration (IC50) was determined as 2.72 µM in series [1] (read-out: IC50 (HBeAg level, HepDES19 primary screen assay), HepDES19 cells, 5 days compound incubation, HBeAg ELISA) and 2.56 µM in series [2] (read-out: HBsAg IC50, Cryopreserved PHH infected with HBV, 9 days post-compound treatment, extracellular HBsAg).

Take `COC(=O)CCOc1cc(C(F)(F)F)ccc1-c1cc(=O)c2cccc(Cl)c2o1` [Example A002, methyl 3-[2-(8-chloro-4-oxo-chromen-2-yl)-5-(trifluoromethyl)phenoxy]propanoate]: the IC50 in series [1] (setting [4]) worked out at 0.795 µM; in series [2] (setting [5]), 1.82 µM.

With `Cc1cc(-c2cc(=O)c3cccc(Cl)c3o2)c(OCCC(=O)O)cc1Br` [Example A006, 3-[5-bromo-2-(8-chloro-4-oxo-chromen-2-yl)-4-methyl-phenoxy]propanoic acid], the IC50 in series [1] (setting [4]) came to 1.23 µM; in series [2] (setting [5]), 1.08 µM.

In the case of `O=C(O)CCOc1cc2c(cc1-c1cc(=O)c3cccc(Cl)c3o1)OCO2` [Example A011, 3-[[6-(8-chloro-4-oxo-chromen-2-yl)-1,3-benzodioxol-5-yl]oxy]propanoic acid], the IC50 is 0.415 µM in series [1] (setting [4]) and 0.931 µM in series [2] (setting [5]).

For the compound `COc1cc(OCCC(=O)O)c(-c2cc(=O)c3cccc(Cl)c3o2)cc1C` [Example A012, 3-[2-(8-chloro-4-oxo-chromen-2-yl)-5-methoxy-4-methyl-phenoxy]propanoic acid], the IC50 in series [1] (setting [4]) amounted to 0.65 µM; in series [2] (setting [5]), 2.11 µM.

On to `Cc1ccc(-c2cc(=O)c3cccc(Cl)c3o2)c(OCCC(=O)O)c1` [Example A013, 3-[2-(8-chloro-4-oxo-chromen-2-yl)-5-methyl-phenoxy]propanoic], for which the half-inhibitory concentration (IC50) in series [1] (setting [4]) was found to be 0.656 µM; in series [2] (setting [5]) it was 1.91 µM.

With `O=C(O)CCOc1cc(OC(F)(F)F)c(Br)cc1-c1cc(=O)c2cccc(Cl)c2o1` [Example A016, 3-[4-bromo-2-(8-chloro-4-oxo-chromen-2-yl)-5-(trifluoromethoxy)phenoxy]propanoic acid], the IC50 came out at 1.03 µM in series [1] (setting [4]) and 0.828 µM in series [2] (setting [5]).

In the case of `O=C(O)CCOc1cc(Br)cc(F)c1-c1cc(=O)c2cccc(Cl)c2o1` [Example A020, 3-[5-bromo-2-(8-chloro-4-oxo-chromen-2-yl)-3-fluoro-phenoxy]propanoic acid], the IC50 in series [1] (setting [4]) was determined as 0.78 µM; in series [2] (setting [5]), 7.5 µM.

As for `O=C(O)CCCOc1cc(Br)ccc1-c1cc(=O)c2cccc(Cl)c2o1` [Example A055, 4-[5-bromo-2-(8-chloro-4-oxo-chromen-2-yl)phenoxy]butanoic acid], the results for the IC50 in series [1] (setting [4]) and in series [2] (setting [5]) were 0.0955 µM and 2.38 µM, respectively.

With `Cc1cc(-c2cc(=O)c3cccc(Cl)c3o2)c(OCC(=O)N2C[C@@H](O)[C@@H](O)C2)cc1Br` [Example A090, 2-[4-bromo-5-methyl-2-[2-oxo-2-[rac-(3S,4R)-3,4-dihydroxypyrrolidin-1-yl]ethoxy]phenyl]-8-chloro-chromen-4-one], the concentration for half-maximal inhibition (IC50) in series [1] (setting [4]) was 4.79 µM; in series [2] (setting [5]), 9.35 µM.

With `O=C(COc1cc(C(F)(F)F)ccc1-c1cc(=O)c2cccc(Cl)c2o1)N1CCOCC1` [Example A092, 8-chloro-2-[2-(2-morpholino-2-oxo-ethoxy)-4-(trifluoromethyl)phenyl]chromen-4-one], the IC50 in series [1] (setting [4]) was 1.13 µM; in series [2] (setting [5]), 2.8 µM.

For the compound `O=C(O)C1CC(Oc2cc(Br)ccc2-c2cc(=O)c3cccc(Cl)c3o2)C1` (stereo not drawn) [Example B001, 3-[5-bromo-2-(8-chloro-4-oxo-chromen-2-yl)phenoxy]cyclobutanecarboxylic acid], the results for the half-inhibitory concentration (IC50) in series [1] (setting [4]) and in series [2] (setting [5]) were 0.213 µM and 1.03 µM, respectively.

For `Cc1cc(-c2cc(=O)c3cccc(Cl)c3o2)c(O[C@H]2C[C@@H](C(=O)O)C2)cc1Br` [Example B013-A, Cis-3-[5-bromo-2-(8-chloro-4-oxo-chromen-2-yl)-4-methyl-phenoxy]cyclobutanecarboxylic acid], the IC50 in series [1] (setting [4]) was 0.919 µM; in series [2] (setting [5]) it was 7.3 µM.

For the compound `CC(C)(COc1cc(Br)ccc1-c1cc(=O)c2cccc(Cl)c2o1)CO[C@H]1C[C@H](C(=O)O)C1` [Example C110-B, trans-3-[3-[5-bromo-2-(8-chloro-4-oxo-chromen-2-yl)phenoxy]-2,2-dimethyl-propoxy]cyclobutanecarboxylic acid], the IC50 in series [1] (setting [4]) is 3.74 µM. In series [3], the “Clearance of Human microsome” value turned out to be 6.15 mL/min/kg.

On to `O=C(O)[C@@H]1CCN(C(=O)COCCOc2cc(Br)ccc2-c2cc(=O)c3cccc(Cl)c3o2)C1` [Example C111, (3R)-1-[2-[2-[5-bromo-2-(8-chloro-4-oxo-chromen-2-yl)phenoxy]ethoxy]acetyl]pyrrolidine-3-carboxylic acid], for which, in series [1] (setting [4]), the IC50 stood at 1.25 µM. Further, the “Clearance of Human microsome” value in series [3] worked out at 6.15 mL/min/kg.

For the compound `O=C(O)[C@H]1CCN(C(=O)COCCOc2cc(Br)ccc2-c2cc(=O)c3cccc(Cl)c3o2)C1` [Example C112, (3S)-1-[2-[2-[5-bromo-2-(8-chloro-4-oxo-chromen-2-yl)phenoxy]ethoxy]acetyl]pyrrolidine-3-carboxylic acid], the half-maximal inhibitory concentration (IC50) in series [1] (setting [4]) is 11.4 µM. The “Clearance of Human microsome” value in series [3] worked out at 6.15 mL/min/kg.

Take `O=C(O)COCC(O)COc1cc(C(F)(F)F)ccc1-c1cc(=O)c2cccc(Cl)c2o1` (stereo not drawn) [Example C115, 2-[3-[2-(8-chloro-4-oxo-chromen-2-yl)-5-(trifluoromethyl)phenoxy]-2-hydroxy-propoxy]acetic acid]: the 50% inhibitory concentration (IC50) in series [1] (setting [4]) amounted to 19.2 µM. The “Clearance of Human microsome” value in series [3] is given as 6.15 mL/min/kg.

Consider `O=C(COCCOc1cc(Br)ccc1-c1cc(=O)c2cccc(Cl)c2o1)NS(=O)(=O)C1CC1` [Example C116, 2-[2-[5-bromo-2-(8-chloro-4-oxo-chromen-2-yl)phenoxy]ethoxy]-N-cyclopropylsulfonyl-acetamide], for which, in series [1] (setting [4]), the IC50 was 9.13 µM. In series [3], the “Clearance of Human microsome” value is 6.15 mL/min/kg.

For `O=C(COCCCOc1cc(C(F)(F)F)ccc1-c1cc(=O)c2cccc(Cl)c2o1)NS(=O)(=O)C1CC1` [Example C117, 2-[3-[2-(8-chloro-4-oxo-chromen-2-yl)-5-(trifluoromethyl)phenoxy]propoxy]-N-cyclopropylsulfonyl-acetamide], the IC50 in series [1] (setting [4]) came out at 2.52 µM. The “Clearance of Human microsome” value in series [3] is listed as 7.45 mL/min/kg.

As to `O=C(COCCOc1cc(C(F)(F)F)ccc1-c1cc(=O)c2cccc(Cl)c2o1)NS(=O)(=O)C1CC1` [Example C118, 2-[2-[2-(8-chloro-4-oxo-chromen-2-yl)-5-(trifluoromethyl)phenoxy]ethoxy]-N-cyclopropylsulfonyl-acetamide], the IC50 in series [1] (setting [4]) was determined as 14.7 µM. Moreover, the “Clearance of Human microsome” value in series [3] is listed as 6.15 mL/min/kg.

Turning to `CS(=O)(=O)NC(=O)[C@H]1C[C@@H](OCCOc2cc(C(F)(F)F)ccc2-c2cc(=O)c3cccc(Cl)c3o2)C1` [Example C121, Cis-3-[2-[2-(8-chloro-4-oxo-chromen-2-yl)-5-(trifluoromethyl)phenoxy]ethoxy]-N-methylsulfonyl-cyclobutanecarboxamide], the IC50 in series [1] (setting [4]) turned out to be 5.89 µM. Further, the “Clearance of Human microsome” value in series [3] was found to be 8.68 mL/min/kg.
